Assay results as given in patent US11213511B2, “Composition for preventing or treating SARS coronavirus 2 infection disease” (priority 2020, dated 2022).
Values joined by “and” are separate entries in the source; they are usually repeats but may differ in a detail not shown here. Identical values can stand only once. Like-named read-outs stand apart in the source and are kept apart here.

Tests used:
SARS CoV-2 (NCCP-43326) [1] = assay: Observation of cell morphology according to medicament treatment; assay type: cell-based; conditions: 10 to 20 μM, VERO cell, FIG. 3
SARS CoV-2 (NCCP-43326) [2] = assay type: cell-based
[3] = tested on: severe acute respiratory syndrome coronavirus 2; assay: Medicament efficacy of Sulfinpyrazone in SARS coronavirus 2 infected animal model (Example 7); assay type: in vivo, Syrian Hamster; conditions: 50 MPK (50 mg/kg/day), PO twice daily, 4 days of continuous administration, vs virus alone infected group
[4] = molecular target: T1, ACE2 and SARS-CoV-2 Spike S1 protein binding (UniProt P0DTC2+Q9BYF1); assay: biochemical
T1 construct: Spike S1, Fc fusion, Avi-tag, Biotin Labeled (SARS-CoV-2) (BPS Bioscience, 100679); Fc fusion; Avi-tag (biotin labeled); His-Tag (Eu-labeled); purchased BPS Bioscience 100705 (ACE2); 100679 (Spike S1)

SARS-CoV-2 3CL protease = SARS-CoV-2 3CL protease (Severe acute respiratory syndrome coronavirus 2, UniProt P0DTD1); assay: biochemical; conditions: for inhibition at 30 µM: read-out: activity of 3CL protease inhibited
VERO cell = conditions: for Viability: 72 hours, MTT; for cell survival: 10 to 20 μM
[5] = tested on: severe acute respiratory syndrome coronavirus 2; design: species or system Syrian Hamster; conditions: hamster, in vivo

T1 sequence (Q9BYF1 18-740, one chain of several): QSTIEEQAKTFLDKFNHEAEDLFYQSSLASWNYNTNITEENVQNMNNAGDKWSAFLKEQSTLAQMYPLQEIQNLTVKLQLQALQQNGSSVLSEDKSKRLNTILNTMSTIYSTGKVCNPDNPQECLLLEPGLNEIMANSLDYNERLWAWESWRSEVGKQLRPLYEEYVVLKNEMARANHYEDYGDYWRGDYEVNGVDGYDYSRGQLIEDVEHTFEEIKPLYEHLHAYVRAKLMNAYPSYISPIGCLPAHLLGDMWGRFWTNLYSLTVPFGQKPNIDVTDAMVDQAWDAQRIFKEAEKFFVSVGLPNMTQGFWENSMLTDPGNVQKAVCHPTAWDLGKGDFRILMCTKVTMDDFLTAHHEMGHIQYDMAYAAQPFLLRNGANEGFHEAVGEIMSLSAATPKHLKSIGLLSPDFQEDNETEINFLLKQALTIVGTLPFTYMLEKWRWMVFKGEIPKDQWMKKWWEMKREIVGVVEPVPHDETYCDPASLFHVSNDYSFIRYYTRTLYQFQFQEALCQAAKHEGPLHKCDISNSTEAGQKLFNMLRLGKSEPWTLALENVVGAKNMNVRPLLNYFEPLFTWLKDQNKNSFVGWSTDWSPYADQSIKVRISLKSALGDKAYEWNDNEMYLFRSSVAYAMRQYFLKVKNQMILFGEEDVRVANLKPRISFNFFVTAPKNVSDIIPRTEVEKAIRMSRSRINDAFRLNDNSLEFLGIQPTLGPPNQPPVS

O=C1C(CC[S+]([O-])c2ccccc2)C(=O)N(c2ccccc2)N1c1ccccc1 (racemic) [Sulfinpyrazone, 1,2-diphenyl-4-[2-(phenylsulfinyl)ethyl]pyrazolidine-3,5-dione]
change in cell morphology of virus-infected cells (SARS CoV-2 (NCCP-43326) [1]): morphology change was small
CPE Reduction (%) (SARS CoV-2 (NCCP-43326) [2]): 33.1 ± 7.0% and 40.7 ± 8.0%
Gross pneumonia lesion amelioration percentage (%) [3]: 15.6%
TR-FRET ratio [4]: 0.96 and 0.97 and 0.95 and 0.93 and 0.94
activity at 0.002 µM [4]: 96%
activity at 0.005 µM [4]: 97%
activity at 0.014 µM [4]: 100%
activity at 0.041 µM [4]: 98%
activity at 0.123 µM [4]: 100%
activity at 0.37 µM [4]: 99%
activity at 1.111 µM [4]: 101%
activity at 3.333 µM [4]: 98%
activity at 10 µM [4]: 100%
activity at 30 µM [4]: 99%
efficacy in inhibiting the binding of ACE2 and Spike S1 proteins [4]: no efficacy
% Activity ([4]; 0.002 µM): 95%
% Activity ([4]; 10 µM): 95%
activity at 0.001 µM (SARS-CoV-2 3CL protease): 96%
activity at 0.003 µM (SARS-CoV-2 3CL protease): 104%
activity at 0.01 µM (SARS-CoV-2 3CL protease): 100%
activity at 0.03 µM (SARS-CoV-2 3CL protease): 103%
activity at 0.1 µM (SARS-CoV-2 3CL protease): 103%
activity at 0.3 µM (SARS-CoV-2 3CL protease): 102%
activity at 1 µM (SARS-CoV-2 3CL protease): 99%
activity at 3 µM (SARS-CoV-2 3CL protease): 92%
activity at 10 µM (SARS-CoV-2 3CL protease): 90%
activity at 30 µM (SARS-CoV-2 3CL protease): 82%
% Activity (SARS-CoV-2 3CL protease; 0.001 µM): 101%
% Activity (SARS-CoV-2 3CL protease; 0.003 µM): 101%
% Activity (SARS-CoV-2 3CL protease; 0.01 µM): 101%
% Activity (SARS-CoV-2 3CL protease; 0.3 µM): 94%
% Activity (SARS-CoV-2 3CL protease; 1 µM): 98%
% Activity (SARS-CoV-2 3CL protease; 3 µM): 95%
% Activity (SARS-CoV-2 3CL protease; 10 µM): 95%
% Activity (SARS-CoV-2 3CL protease; 30 µM): 80%
inhibition at 30 µM (SARS-CoV-2 3CL protease): ~20%
Viability (VERO cell; 10 μM): 108.3 ± 0.4%
Viability (VERO cell; 20 μM): 99.6 ± 7.3%
cell survival (VERO cell): excellent cell survival

CCC(CC)COC(=O)[C@H](C)N[P@](=O)(OC[C@H]1O[C@@](C#N)(c2ccc3c(N)ncnn23)[C@H](O)[C@@H]1O)Oc1ccccc1 [Remdesivir]
gross cure rate [5]: 44.3%

COc1cc(C(=O)NS(=O)(=O)c2ccccc2C)ccc1Cc1cn(C)c2ccc(NC(=O)OC3CCCC3)cc12 [Zafirlukast, cyclopentyl3-{2-methoxy-4-[(o-tolylsulfonyl)carbamoyl]benzyl}-1-methyl-1H-indol-5-ylcarbamate]
change in cell morphology of virus-infected cells (SARS CoV-2 (NCCP-43326) [1]): morphology change was small
CPE Reduction (%) (SARS CoV-2 (NCCP-43326) [2]): 60.1 ± 7.1% and 75.6 ± 3.9%
activity at 0.002 µM [4]: 91%
activity at 0.005 µM [4]: 96%
activity at 0.014 µM [4]: 92%
activity at 0.041 µM [4]: 99%
activity at 0.123 µM [4]: 97%
activity at 0.37 µM [4]: 101%
activity at 1.111 µM [4]: 93%
activity at 3.333 µM [4]: 102%
activity at 10 µM [4]: 96%
activity at 30 µM [4]: 95%
efficacy in inhibiting the binding of ACE2 and Spike S1 proteins [4]: no efficacy
% Activity ([4]; 0.005 µM): 94%
% Activity ([4]; 10 µM): 98%
activity at 0.001 µM (SARS-CoV-2 3CL protease): 100%
activity at 0.003 µM (SARS-CoV-2 3CL protease): 95%
activity at 0.01 µM (SARS-CoV-2 3CL protease): 94%
activity at 0.03 µM (SARS-CoV-2 3CL protease): 97%
activity at 0.1 µM (SARS-CoV-2 3CL protease): 95%
activity at 0.3 µM (SARS-CoV-2 3CL protease): 95%
activity at 1 µM (SARS-CoV-2 3CL protease): 90%
activity at 3 µM (SARS-CoV-2 3CL protease): 89%
activity at 10 µM (SARS-CoV-2 3CL protease): 78%
activity at 30 µM (SARS-CoV-2 3CL protease): 52%
% Activity (SARS-CoV-2 3CL protease; 0.003 µM): 98%
% Activity (SARS-CoV-2 3CL protease; 0.01 µM): 103%
% Activity (SARS-CoV-2 3CL protease; 0.03 µM): 99%
% Activity (SARS-CoV-2 3CL protease; 0.3 µM): 98%
% Activity (SARS-CoV-2 3CL protease; 3 µM): 87%
% Activity (SARS-CoV-2 3CL protease; 10 µM): 77%
% Activity (SARS-CoV-2 3CL protease; 30 µM): 55%
inhibition at 30 µM (SARS-CoV-2 3CL protease): ≥ 45%
amelioration effects in the gross lung lesion [5]: very excellent amelioration effects
amelioration in bilateral pneumonia, pulmonary edema, and pulmonary bleeding aspects ([5]; po): excellent amelioration
treatment effect compared to the control medicament Remdesivir ([5]; po): superior treatment effect
Viability (VERO cell; 10 μM): 109.7 ± 2.8%
Viability (VERO cell; 20 μM): 89.3 ± 0.7%
cell survival (VERO cell): excellent cell survival
